Like-named read-outs stand apart in the source and are kept apart here.
Tests used:
Experiment in all cases: Anti-bacterial test, minimum inhibitory concentration on agar
Type in all cases: cell-based
[1] = test system: Acinetobacter calcoaceticus IFO 13006; details: Acinetobacter calcoaceticus IFO 13006, medium TSA; for MIC: IFO13006, read-out: Minimum inhibitory concentration
From the text: (§1) The compound (I) thus obtained is useful as a drug, being active against certain gram-positive and gram-negative bacteria. By way of example, the compounds are active against the following micro-organisms.
(§2) The media and compounds employed in the anti-bacterial test are as follows: • Media: • TSA = Trypticase soy agar • [Baltimore Biologicals (U.S.A.)] • B-TSA = Blood trypticase soy agar • Compounds: • Compound A = Sodium 3-[2-(2-amino-4-thiazolyl)-2-methoxyiminoacetamido]-2-oxo-azetidine-1-sulphonate • Compound B = Sodium 3-[D(-)-N-(4-ethyl-2,3-dioxo-1-piperazinocarbonyl)-phenyl-glycin- amido]-2-oxoazetidine-1-sulphonate • Compound C = Sodium 3-[D(-)-N-(4-ethyl-2,3-dioxo-1-piperazinocarbonyl)phenylglycinamido]-3-methoxy-2-oxoazetidine-1-sulphonate • Compound D = Sodium 3-[2-(4-ethyl-2,3-dioxo-1-piperazinocarboxamido)-2-(2-amino-4-thiazolyl)-acetamido]-2-oxoazetidine-1-sulphonate • Compound E = Sodium 3-[DL-2-(4-ethyl-2,3-dioxo-1-piperazinocarboxamido)-2-thienylacetamido]-2-oxoazetidine-1-sulphonate • Compound F = Sodium 3-[D-2-(4-ethyl-2,3-dioxo-1-piperazinocarboxamido)-2-thienylacetamido]-2-oxoazetidine-1-sulphonate • Compound G = Sodium 3-[D-2-(4-n-octyl-2,3-dioxo-1-piperazinocarboxamido)-2-phenylacetamido]-2-oxoazetidine-1-sulphonate • Compound H = Sodium 3-[2-(4-n-octyl-2,3-dioxo-1-piperazinocarboxamido)-2-(2-amino-4-thiazolyl)-acetamido]-2-oxoazetidine-1-sulphonate • Compound I = Sodium 3-[D-2-[(2-oxo-3-furfurylideneaminoimidazolidin-1-yl)-carboxamido]-2-phenylacetamido]-2-oxoazetidine-1-sulphonate • Compound J = Sodium 3-[2-(4-n-octyl-2,3-dioxo-1-piperazinocarboxamido)-2-thienylacetamido]-2-oxoazetidine-1-sulphonate • Compound K = Sodium 3-[D-2-[[2-oxo-3-(thiophen-2-aidoimino)-imidazolidin-1-yl]-carboxamido]-2-phenylacetamido]-2-oxoazetidine-1-sulphonate • Compound L = Sodium 3-[2-[(2-oxo-3-furfurylideneaminoimidazolidin-1-yl)-carboxamido]-2-thienylacetamido]-2-oxoazetidine-1-sulphonate

[2] = test system: Bordetella bronchiseptica Sagami; details: Bordetella bronchiseptica Sagami, medium B—TSA; for MIC: read-out: Minimum inhibitory concentration
From the text: as §1, §2

[3] = test system: Candida albicans TA; details: Candida albicans TA, medium TSA; for MIC: read-out: Minimum inhibitory concentration
From the text: as §1, §2

[4] = test system: Citrobacter freundii IFO 12681; details: Citrobacter freundii IFO 12681, medium TSA; for MIC: IFO12681, read-out: Minimum inhibitory concentration
From the text: as §1, §2

[5] = test system: Corynebacterium diphtheriae Toronto; details: Corynebacterium diphtheriae Toronto, medium B—TSA; for MIC: read-out: Minimum inhibitory concentration
From the text: as §1, §2

[6] = test system: Enterobacter cloacae IFO 12937; details: Enterobacter cloacae IFO 12937, medium TSA; for MIC: IFO12937, read-out: Minimum inhibitory concentration
From the text: as §1, §2

[7] = test system: Escherichia coli NIHJ JC—2; details: Escherichia coli NIHJ JC—2, medium TSA; for MIC: read-out: Minimum inhibitory concentration
From the text: as §1, §2

[8] = test system: Escherichia coli O—111; details: medium TSA
From the text: as §1, §2

[9] = test system: Escherichia coli T-7; details: for MIC: T7, medium TSA
From the text: as §1, §2

[10] = test system: Klebsiella pneumoniae DT; details: Klebsiella pneumoniae DT, medium TSA; for MIC: read-out: Minimum inhibitory concentration
From the text: as §1, §2

[11] = test system: Proteus mirabilis IFO 3849; details: Proteus mirabilis IFO 3849, medium TSA; for MIC: IFO3849, read-out: Minimum inhibitory concentration
From the text: as §1, §2

[12] = test system: Proteus morganii IFO 3168; details: Proteus morganii IFO 3168, medium TSA; for MIC: Morganella morganii, IFO3168, read-out: Minimum inhibitory concentration
From the text: as §1, §2

[13] = test system: Proteus vulgaris IFO 3988; details: Proteus vulgaris IFO 3988, medium TSA; for MIC: IFO3988, read-out: Minimum inhibitory concentration
From the text: as §1, §2

[14] = test system: Pseudomonas aeruginosa IFO 3455
From the text: as §1, §2

[15] = test system: Pseudomonas aeruginosa U 31; details: Pseudomonas aeruginosa U 31, medium TSA; for MIC: U31, read-out: Minimum inhibitory concentration
From the text: as §1, §2

[16] = test system: Serratia marcescens IFO 12648; details: Serratia marcescens IFO 12648, medium TSA; for MIC: IFO12648, read-out: Minimum inhibitory concentration
From the text: as §1, §2

[17] = test system: Staphylococcus aureus 1840; details: Staphylococcus aureus 1840, medium TSA; for MIC: read-out: Minimum inhibitory concentration
From the text: as §1, §2

[18] = test system: Staphylococcus aureus 308A—1; details: for MIC: read-out: Minimum inhibitory concentration
From the text: as §1, §2

[19] = test system: Staphylococcus aureus FDA209P; details: Staphylococcus aureus FDA209P; for MIC: Staphylococcus aureus, FDA209P, read-out: Minimum inhibitory concentration
From the text: as §1, §2

[20] = test system: Streptococcus faecium IFO 3128; details: Streptococcus faecium IFO 3128, medium B—TSA; for MIC: Enterococcus faecium, IFO3128, read-out: Minimum inhibitory concentration
From the text: as §1, §2

[21] = test system: Streptococcus mitis America; details: for MIC: read-out: Minimum inhibitory concentration
From the text: as §1, §2

[22] = test system: Streptococcus pneumoniae Type I; details: Streptococcus pneumoniae Type I, medium B—TSA; for MIC: read-out: Minimum inhibitory concentration
From the text: as §1, §2

[23] = test system: Streptococcus pyogenes E—14; details: Streptococcus pyogenes E—14, medium B—TSA; for MIC: read-out: Minimum inhibitory concentration
From the text: as §1, §2

[24] = test system: Streptococcus pyogenes S—8; details: Streptococcus pyogenes S—8, medium B—TSA; for MIC: read-out: Minimum inhibitory concentration
From the text: as §1, §2

[25] = IFO3455, Pseudomonas aeruginosa IFO 3455, medium TSA, read-out: Minimum inhibitory concentration
[26] = Staphylococcus aureus 308A—1, medium TSA
[27] = Streptococcus mitis America, medium B—TSA

## CCN1CCN(C(=O)NC(C(=O)NC2CN(S(=O)(=O)O)C2=O)c2csc(N)n2)C(=O)C1=O (stereo not shown) [Compound D, Sodium 3-[2-(4-ethyl-2,3-dioxo-1-piperazinocarboxamido)-2-(2-amino-4-thiazolyl)-acetamido]-2-oxoazetidine-1-sulphonate]
[1]
  MIC: 50 µg/mL
[2]
  MIC: > 100 µg/mL
[3]
  MIC: > 100 µg/mL
[4]
  MIC: 1.56 µg/mL
[5]
  MIC: 3.13 µg/mL
[6]
  MIC: 25 µg/mL
[7]
  MIC: 0.39 µg/mL
[8]
  MIC: 0.1 µg/mL
[9]
  MIC: > 100 µg/mL
[10]
  MIC: 0.2 µg/mL
[11]
  MIC: 25 µg/mL
[12]
  MIC: 12.5 µg/mL
[13]
  MIC: 0.1 µg/mL
[14]; [25]
  MIC: 3.13 µg/mL
[15]
  MIC: > 100 µg/mL
[16]
  MIC: 0.78 µg/mL
[17]
  MIC: 25 µg/mL
[18]; [26]
  MIC: 6.25 µg/mL
[19]; medium B—TSA
  MIC: 12.5 µg/mL
[19]; medium TSA
  MIC: 12.5 µg/mL
[20]
  MIC: > 100 µg/mL
[21]; [27]
  MIC: 25 µg/mL
[22]
  MIC: 6.25 µg/mL
[23]
  MIC: 3.13 µg/mL
[24]
  MIC: 3.13 µg/mL

## O=C(NC1CN(S(=O)(=O)O)C1=O)[C@H](NC(=O)N1CCN(N=Cc2ccco2)C1=O)c1ccccc1 (stereo partly drawn) [Compound I, Sodium 3-[D-2-[(2-oxo-3-furfurylideneaminoimidazolidin-1-yl)-carboxamido]-2-phenylacetamido]-2-oxoazetidine-1-sulphonate]
[1]
  MIC: 25 µg/mL
[2]
  MIC: > 100 µg/mL
[3]
  MIC: > 100 µg/mL
[4]
  MIC: 6.25 µg/mL
[5]
  MIC: 0.78 µg/mL
[6]
  MIC: 25 µg/mL
[7]
  MIC: 1.56 µg/mL
[8]
  MIC: 3.13 µg/mL
[9]
  MIC: > 100 µg/mL
[10]
  MIC: 0.2 µg/mL
[11]
  MIC: 1.56 µg/mL
[12]
  MIC: 12.5 µg/mL
[13]
  MIC: 0.2 µg/mL
[14]; Pseudomonas aeruginosa, IFO3455, read-out: Minimum inhibitory concentration
  MIC: 3.13 µg/mL
[15]
  MIC: > 100 µg/mL
[16]
  MIC: 1.56 µg/mL
[17]
  MIC: 50 µg/mL
[18]; Staphylococcus aureus
  MIC: 3.13 µg/mL
[19]; medium B—TSA
  MIC: 6.25 µg/mL
[19]; medium TSA
  MIC: 6.25 µg/mL
[20]
  MIC: > 100 µg/mL
[21]; Streptococcus mitis
  MIC: 3.13 µg/mL
[22]
  MIC: 1.56 µg/mL
[23]
  MIC: 0.39 µg/mL
[24]
  MIC: 0.78 µg/mL

## CCN1CCN(C(=O)N[C@H](C(=O)NC2CN(S(=O)(=O)[O-])C2=O)c2cccs2)C(=O)C1=O.[Na+] (stereo partly drawn) [Compound F, Sodium 3-[D-2-(4-ethyl-2,3-dioxo-1-piperazinocarboxamido)-2-thienylacetamido]-2-oxoazetidine-1-sulphonate]
[1]
  Minimum inhibitory concentration: 25 µg/mL
[2]
  Minimum inhibitory concentration: >100 µg/mL
[3]
  Minimum inhibitory concentration: >100 µg/mL
[4]
  Minimum inhibitory concentration: 1.56 µg/mL
[5]
  Minimum inhibitory concentration: 0.78 µg/mL
[6]
  Minimum inhibitory concentration: 50 µg/mL
[7]
  Minimum inhibitory concentration: 0.78 µg/mL
[8]
  Minimum inhibitory concentration: 0.2 µg/mL
[9]; medium TSA
  Minimum inhibitory concentration: >100 µg/mL
[10]
  Minimum inhibitory concentration: 0.2 µg/mL
[11]
  Minimum inhibitory concentration: 0.78 µg/mL
[12]
  Minimum inhibitory concentration: 12.5 µg/mL
[13]
  Minimum inhibitory concentration: <0.1 µg/mL
[14]; Pseudomonas aeruginosa IFO 3455, medium TSA
  Minimum inhibitory concentration: 6.25 µg/mL
[15]
  Minimum inhibitory concentration: >100 µg/mL
[16]
  Minimum inhibitory concentration: 1.56 µg/mL
[17]
  Minimum inhibitory concentration: 25 µg/mL
[18]; [26]
  Minimum inhibitory concentration: 6.25 µg/mL
[19]; medium B—TSA
  Minimum inhibitory concentration: 6.25 µg/mL
[19]; medium TSA
  Minimum inhibitory concentration: 6.25 µg/mL
[20]
  Minimum inhibitory concentration: >100 µg/mL
[21]; [27]
  Minimum inhibitory concentration: 25 µg/mL
[22]
  Minimum inhibitory concentration: 6.25 µg/mL
[23]
  Minimum inhibitory concentration: 3.13 µg/mL
[24]
  Minimum inhibitory concentration: 3.13 µg/mL

## CCCCCCCCN1CCN(C(=O)N[C@@H](C(=O)NC2CN(S(=O)(=O)O)C2=O)c2ccccc2)C(=O)C1=O (stereo partly drawn) [Compound G, Sodium 3-[D-2-(4-n-octyl-2,3-dioxo-1-piperazinocarboxamido)-2-phenylacetamido]-2-oxoazetidine-1-sulphonate]
[1]
  MIC: 3.13 µg/mL
[2]
  MIC: > 100 µg/mL
[3]
  MIC: > 100 µg/mL
[4]
  MIC: 3.13 µg/mL
[5]
  MIC: 25 µg/mL
[6]
  MIC: 6.25 µg/mL
[7]
  MIC: 3.13 µg/mL
[8]
  MIC: 0.78 µg/mL
[9]
  MIC: > 100 µg/mL
[10]
  MIC: 0.78 µg/mL
[11]
  MIC: 3.13 µg/mL
[12]
  MIC: 1.56 µg/mL
[13]
  MIC: 0.78 µg/mL
[14]; [25]
  MIC: 1.56 µg/mL
[15]
  MIC: 25 µg/mL
[16]
  MIC: 1.56 µg/mL
[17]
  MIC: 25 µg/mL
[18]; [26]
  MIC: 0.78 µg/mL
[19]; medium B—TSA
  MIC: 3.13 µg/mL
[19]; medium TSA
  MIC: 1.56 µg/mL
[20]
  MIC: > 100 µg/mL
[21]; [27]
  MIC: 25 µg/mL
[22]
  MIC: 3.13 µg/mL
[23]
  MIC: 1.56 µg/mL
[24]
  MIC: 1.56 µg/mL
